Assay results published in PubChem BioAssay AID1259407 (Chemical Carcinogenesis Research Information System (CCRIS), 2018).
The source made the active and inactive calls. No rule for the calls is given here.

System: CCRIS mutagenicity, Ames/micronucleus/aberration tests
Experiment: CCRIS mutagenicity studies
[1] = Test System: AMES SALMONELLA TYPHIMURIUM, Strain/Indicator: TA98, Metabolic Activation: NONE, Method: PREINCUBATION
[2] = Test System: AMES SALMONELLA TYPHIMURIUM, Strain/Indicator: TA100, Metabolic Activation: NONE, Method: PREINCUBATION
[3] = Test System: AMES SALMONELLA TYPHIMURIUM, Strain/Indicator: TA100, Metabolic Activation: NONE, Method: STANDARD PLATE

O=[N+]([O-])c1ccc(N=N/C(=N\Nc2ccc(I)cc2)c2ccccc2)cc1
mutagenic call (Test System: AMES SALMONELLA TYPHIMURIUM, Strain/Indicator: TA97, Metabolic Activation: NONE, Method: SPOT TEST): inactive; negative | mutagenic call (Test System: AMES SALMONELLA TYPHIMURIUM, Strain/Indicator: TA97, Metabolic Activation: RAT, LIVER, S-9, PHENOBARBITAL, Method: SPOT TEST): inactive; negative | mutagenic call [1]: inactive; negative | mutagenic call (Test System: AMES SALMONELLA TYPHIMURIUM, Strain/Indicator: TA98, Metabolic Activation: NONE, Method: SPOT TEST): inactive; negative | mutagenic call (Test System: AMES SALMONELLA TYPHIMURIUM, Strain/Indicator: TA98, Metabolic Activation: RAT, LIVER, S-9, PHENOBARBITAL, Method: PREINCUBATION): inactive; negative | mutagenic call (Test System: AMES SALMONELLA TYPHIMURIUM, Strain/Indicator: TA98, Metabolic Activation: RAT, LIVER, S-9, PHENOBARBITAL, Method: SPOT TEST): inactive; negative | mutagenic call [2]: inactive; negative | mutagenic call (Test System: AMES SALMONELLA TYPHIMURIUM, Strain/Indicator: TA100, Metabolic Activation: NONE, Method: SPOT TEST): inactive; negative | mutagenic call (Test System: AMES SALMONELLA TYPHIMURIUM, Strain/Indicator: TA100, Metabolic Activation: RAT, LIVER, S-9, PHENOBARBITAL, Method: PREINCUBATION): inactive; negative | mutagenic call (Test System: AMES SALMONELLA TYPHIMURIUM, Strain/Indicator: TA100, Metabolic Activation: RAT, LIVER, S-9, PHENOBARBITAL, Method: SPOT TEST): inactive; negative | mutagenic call (Test System: AMES SALMONELLA TYPHIMURIUM, Strain/Indicator: TA102, Metabolic Activation: NONE, Method: SPOT TEST): inactive; negative | mutagenic call (Test System: AMES SALMONELLA TYPHIMURIUM, Strain/Indicator: TA102, Metabolic Activation: RAT, LIVER, S-9, PHENOBARBITAL, Method: SPOT TEST): inactive; negative

Nc1ccc(N=Nc2ccc(-c3ccc(N=Nc4c(S(=O)(=O)O)cc5c(c4N)C(=O)/C(=N/Nc4ccccc4)C(S(=O)(=O)O)=C5)cc3)cc2)c(N)c1
mutagenic call (Test System: AMES SALMONELLA TYPHIMURIUM, Strain/Indicator: SV50, Metabolic Activation: HAMSTER, LIVER, S-9, Method: PREINCUBATION (PRIVAL METHOD)): active; positive | mutagenic call (Test System: AMES SALMONELLA TYPHIMURIUM, Strain/Indicator: SV50, Metabolic Activation: RAT, LIVER, S-9, AROCLOR 1254, Method: PREINCUBATION (PRIVAL METHOD)): active; positive | mutagenic call (Test System: AMES SALMONELLA TYPHIMURIUM, Strain/Indicator: TA98, Metabolic Activation: HAMSTER, LIVER, S-9, Method: PREINCUBATION (PRIVAL METHOD)): active; positive | mutagenic call (Test System: AMES SALMONELLA TYPHIMURIUM, Strain/Indicator: TA98, Metabolic Activation: NONE, Method: STANDARD PLATE): inactive; negative | mutagenic call (Test System: AMES SALMONELLA TYPHIMURIUM, Strain/Indicator: TA98, Metabolic Activation: RAT, LIVER, S-9, AROCLOR 1254, Method: PREINCUBATION (PRIVAL METHOD)): active; positive | mutagenic call (Test System: AMES SALMONELLA TYPHIMURIUM, Strain/Indicator: TA98, Metabolic Activation: RAT, LIVER, S-9, PHENOBARBITAL, Method: STANDARD PLATE): inactive; negative | mutagenic call [3]: inactive; negative | mutagenic call (Test System: AMES SALMONELLA TYPHIMURIUM, Strain/Indicator: TA100, Metabolic Activation: RAT, LIVER, S-9, PHENOBARBITAL, Method: STANDARD PLATE): inactive; negative | mutagenic call (Test System: AMES SALMONELLA TYPHIMURIUM, Strain/Indicator: TA1538, Metabolic Activation: NONE, Method: STANDARD PLATE): inactive; negative | mutagenic call (Test System: AMES SALMONELLA TYPHIMURIUM, Strain/Indicator: TA1538, Metabolic Activation: RAT, LIVER, S-9, AROCLOR 1254, Method: STANDARD PLATE): active; positive | mutagenic call (Test System: Ames Salmonella typhimurium, Strain/Indicator: TA98, Metabolic Activation: Rat, Liver, S-9, Sodium phenobarbitone, Method: Preincubation): active; positive, test conducted under both aerobic and anaerobic conditions. | mutagenic call (Test System: Ames Salmonella typhimurium, Strain/Indicator: TA1538, Metabolic Activation: Rat, Liver, S-9, Sodium phenobarbitone, Method: Preincubation): active; positive, test conducted under both aerobic and anaerobic conditions.

O=c1oc2c([N+](=O)[O-])ccc3ccc4cccc1c4c32
mutagenic call (Test System: AMES SALMONELLA TYPHIMURIUM, Strain/Indicator: TA98(1,8-DNP6), Metabolic Activation: NONE, Method: PREINCUBATION): active; positive | mutagenic call (Test System: AMES SALMONELLA TYPHIMURIUM, Strain/Indicator: TA98(1,8-DNP6), Metabolic Activation: RAT, LIVER, S-9, AROCLOR 1254, Method: PREINCUBATION): active; positive | mutagenic call (Test System: AMES SALMONELLA TYPHIMURIUM, Strain/Indicator: TA98(NR), Metabolic Activation: NONE, Method: PREINCUBATION): active; positive | mutagenic call (Test System: AMES SALMONELLA TYPHIMURIUM, Strain/Indicator: TA98(NR), Metabolic Activation: RAT, LIVER, S-9, AROCLOR 1254, Method: PREINCUBATION): active; positive | mutagenic call [1]: active; positive | mutagenic call (Test System: AMES SALMONELLA TYPHIMURIUM, Strain/Indicator: TA98, Metabolic Activation: RAT, LIVER, S-9, AROCLOR 1254, Method: PREINCUBATION): active; positive | mutagenic call [2]: active; positive | mutagenic call (Test System: AMES SALMONELLA TYPHIMURIUM, Strain/Indicator: TA100, Metabolic Activation: RAT, LIVER, S-9, AROCLOR 1254, Method: PREINCUBATION): active; positive

Cc1ccc(NC(N)=O)cc1
mutagenic call (Test System: AMES SALMONELLA TYPHIMURIUM, Strain/Indicator: TA98, Metabolic Activation: HAMSTER, LIVER, S-9, AROCLOR 1254 (10%), Method: PREINCUBATION): inactive; negative | mutagenic call [1]: inactive; negative | mutagenic call (Test System: AMES SALMONELLA TYPHIMURIUM, Strain/Indicator: TA98, Metabolic Activation: RAT, LIVER, S-9, AROCLOR 1254 (10%), Method: PREINCUBATION): inactive; negative | mutagenic call (Test System: AMES SALMONELLA TYPHIMURIUM, Strain/Indicator: TA100, Metabolic Activation: HAMSTER, LIVER, S-9, AROCLOR 1254 (10%), Method: PREINCUBATION): inactive; negative | mutagenic call [2]: inactive; negative | mutagenic call (Test System: AMES SALMONELLA TYPHIMURIUM, Strain/Indicator: TA100, Metabolic Activation: RAT, LIVER, S-9, AROCLOR 1254 (10%), Method: PREINCUBATION): inactive; negative | mutagenic call (Test System: AMES SALMONELLA TYPHIMURIUM, Strain/Indicator: TA1535, Metabolic Activation: HAMSTER, LIVER, S-9, AROCLOR 1254 (10%), Method: PREINCUBATION): inactive; negative | mutagenic call (Test System: AMES SALMONELLA TYPHIMURIUM, Strain/Indicator: TA1535, Metabolic Activation: NONE, Method: PREINCUBATION): inactive; negative | mutagenic call (Test System: AMES SALMONELLA TYPHIMURIUM, Strain/Indicator: TA1535, Metabolic Activation: RAT, LIVER, S-9, AROCLOR 1254 (10%), Method: PREINCUBATION): inactive; negative | mutagenic call (Test System: AMES SALMONELLA TYPHIMURIUM, Strain/Indicator: TA1537, Metabolic Activation: HAMSTER, LIVER, S-9, AROCLOR 1254 (10%), Method: PREINCUBATION): inactive; negative | mutagenic call (Test System: AMES SALMONELLA TYPHIMURIUM, Strain/Indicator: TA1537, Metabolic Activation: NONE, Method: PREINCUBATION): inactive; negative | mutagenic call (Test System: AMES SALMONELLA TYPHIMURIUM, Strain/Indicator: TA1537, Metabolic Activation: RAT, LIVER, S-9, AROCLOR 1254 (10%), Method: PREINCUBATION): inactive; negative

CC(=O)ON(OCc1ccc(Br)cc1)C(=O)c1ccccc1
mutagenic call [3]: active; positive | mutagenic call (Test System: AMES SALMONELLA TYPHIMURIUM, Strain/Indicator: TA100, Metabolic Activation: RAT, S-9, AROCLOR, Method: STANDARD PLATE): active; positive

CC[C@@]1(O)C[C@H](O[C@H]2C[C@H](N(C)C)[C@H](O[C@H]3C[C@H](O)[C@H](O)[C@H](C)O3)C(C)O2)c2c(cc3c(c2O)C(=O)c2c(O)ccc(O)c2C3=O)[C@H]1C(=O)OC (some centres undefined)
mutagenic call (Test System: AMES SALMONELLA TYPHIMURIUM, Strain/Indicator: TA102, Metabolic Activation: NONE, Method: STANDARD PLATE): active; positive | mutagenic call (Test System: AMES SALMONELLA TYPHIMURIUM, Strain/Indicator: TA104, Metabolic Activation: NONE, Method: STANDARD PLATE): active; positive

c1ccc(Cn2ccnc2)cc1
mutagenic call [1]: inactive; negative | mutagenic call (Test System: AMES SALMONELLA TYPHIMURIUM, Strain/Indicator: TA98, Metabolic Activation: RAT, LIVER, S-9, N-BENZYLIMIDAZOLE, Method: PREINCUBATION): inactive; negative | mutagenic call (Test System: AMES SALMONELLA TYPHIMURIUM, Strain/Indicator: TA98, Metabolic Activation: RAT, LIVER, S-9, Method: PREINCUBATION): inactive; negative | mutagenic call [2]: inactive; negative | mutagenic call (Test System: AMES SALMONELLA TYPHIMURIUM, Strain/Indicator: TA100, Metabolic Activation: RAT, LIVER, S-9, N-BENZYLIMIDAZOLE, Method: PREINCUBATION): active; positive | mutagenic call (Test System: AMES SALMONELLA TYPHIMURIUM, Strain/Indicator: TA100, Metabolic Activation: RAT, LIVER, S-9, Method: PREINCUBATION): active; positive
